Results from patent EP2253617A1, “Halogenated compounds as pesticides” (Bayer CropScience AG, priority 2009, dated 2010).

What was measured:
[1] = tested on: Ctenocephalides felis; assay: Ctenocephalides felis oral test (CTECFE); assay type: in vivo; conditions: 100 ppm in citrated cattle blood, oral uptake, adult fleas, after 2 days; 100 % = all fleas killed
Experimental: Ctenocephalides felis oral (CTECFE)
Lösungsmittel: 1 Gewichtsteil Dimethylsulfoxid
Zwecks Herstellung einer zweckmäßigen Wirkstoffzubereitung vermischt man 10 mg Wirkstoff mit 0,5 ml Dimethylsulfoxid. Ein Teil des Konzentrats wird mit citriertem Rinderblut verdünnt und die gewünschte Konzentration hergestellt.
20 nüchterne adulte Flöhe (Ctenocephalides felis) werden in eine Kammer eingesetzt, die oben und unten mit Gaze verschlossen ist. Auf die Kammer wird ein Metallzylinder gestellt, dessen Unterseite mit Parafilm verschlossen ist. Der Zylinder enthält die Blut-Wirkstoffzubereitung, die von den Flöhen durch die Parafilmmembran aufgenommen werden kann. Nach 2 Tagen wird die Abtötung in % bestimmt. Dabei bedeutet 100 %, dass alle Flöhe abgetötet wurden; 0 % bedeutet, dass kein Floh abgetötet wurde.

[2] = tested on: Boophilus microplus; assay: Boophilus microplus test (BOOPMI injection); assay type: in vivo; conditions: 20 µg / Tier, injection into the abdomen, after 7 days; 100 % = no tick laid fertile eggs
Experimental: Boophilus microplus -Test (BOOPMI Injektion)
(§1) Lösungsmittel: Dimethylsulfoxid
Zur Herstellung einer zweckmäßigen Wirkstoffzubereitung vermischt man 10 mg Wirkstoff mit 0,5 ml Lösungsmittel und verdünnt das Konzentrat mit Wasser auf die gewünschte Konzentration. Die Wirkstofflösung wird in das Abdomen (Boophilus microplus) injiziert, die Tiere werden in Schalen überführt und in einem klimatisierten Raum aufbewahrt. Die Wirkungskontrolle erfolgt auf Ablage fertiler Eier. Nach 7 Tagen wird die Wirkung in % bestimmt. Dabei bedeutet 100%, dass keine Zecke fertile Eier gelegt hat.

[3] = tested on: Phaedon cochleariae; assay: Phaedon test (PHAECO spray treatment); assay type: in vivo; conditions: 500 g/ha, sprayed Chinese cabbage leaf discs, larvae, after 7 days; 100 % = all beetle larvae killed
Description: Phaedon-Test (PHAECO Spritzbehandlung)
(§2) • Lösungsmittel: 78,0 GewichtsteileAceton 1,5 Gewichtsteile Dimethylformamid • Emulgator: 0,5 Gewichtsteile Alkylarylpolyglykolether
(§3) Zur Herstellung einer zweckmäßigen Wirkstoffzubereitung vermischt man 1 Gewichtsteil Wirkstoff mit den angegebenen Mengen Lösungsmittel und Emulgator und verdünnt das Konzentrat mit emulgatorhaltigem Wasser auf die gewünschte Konzentration.
Chinakohlblattscheiben (Brassica pekinensis) werden mit einer Wirkstoffzubereitung der gewünschten Konzentration gespritzt und nach dem Abtrocknen mit Larven des Meerrettichblattkäfers (Phaedon cochleariae) besetzt.
Nach 7 Tagen wird die Wirkung in % bestimmt. Dabei bedeutet 100 %, dass alle Käferlarven abgetötet wurden; 0 % bedeutet, dass keine Käferlarven abgetötet wurden.

[4] = tested on: Spodoptera frugiperda; assay: Spodoptera frugiperda test (SPODFR spray treatment); assay type: in vivo; conditions: 500 g/ha, sprayed maize leaf discs, caterpillars, after 7 days; 100 % = all caterpillars killed
Description: Spodoptera frugiperda-Test (SPODFR Spritzbehandlung)
as §2, §3
Maisblattscheiben (Zea mays) werden mit einer Wirkstoffzubereitung der gewünschten Konzentration gespritzt und nach dem Abtrocknen mit Raupen des Heerwurms (Spodoptera frugiperda) besetzt.Nach 7 Tagen wird die Wirkung in % bestimmt. Dabei bedeutet 100 %, dass alle Raupen abgetötet wurden; 0 % bedeutet, dass keine Raupe abgetötet wurde.

[5] = tested on: Tetranychus urticae; assay type: in vivo; conditions: foliar, 500 g/ha, 144 h
Description: Tetranychus-Test, OP-resistent (TETRUR Spritzbehandlung)
as §2, §3
Bohnenblattscheiben (Phaseolus vulgaris), die von allen Stadien der Gemeinen Spinnmilbe (Tetranychus urticae) befallen sind, werden mit einer Wirkstoffzubereitung der gewünschten Konzentration gespritzt.
Nach 6 Tagen wird die Wirkung in % bestimmt. Dabei bedeutet 100 %, dass alle Spinnmilben abgetötet wurden; 0 % bedeutet, dass keine Spinnmilben abgetötet wurden.

[6] = physchem
[7] = tested on: Lucilia cuprina Larven; assay: Lucilia cuprina test (LUCICU); assay type: in vivo; conditions: 100 ppm, treated horse meat, larvae, after 2 days; 100 % = all larvae killed
Experimental: Lucilia cuprina-Test (LUCICU)
as §1
Zur Herstellung einer zweckmäßigen Wirkstoffzubereitung vermischt man 10 mg Wirkstoff mit 0,5 ml Dimethylsulfoxid und verdünnt das Konzentrat mit Wasser auf die gewünschte Konzentration.Gefäße, die Pferdefleisch enthalten, das mit der Wirkstoffzubereitung der gewünschten Konzentration behandelt wurde, werden mit Lucilia cuprina Larven besetzt.
Nach 2 Tagen wird die Abtötung in % bestimmt. Dabei bedeutet 100 %, dass alle Larven abgetötet wurden; 0 % bedeutet, dass keine Larven abgetötet wurden.

[8] = tested on: Musca domestica Adulten; assay: Musca domestica test (MUSCDO); assay type: in vivo; conditions: 100 ppm, treated sponge, adults, after 2 days; 100 % = all flies killed
Experimental: Musca domestica-Test (MUSCDO)
as §1
Zur Herstellung einer zweckmäßigen Wirkstoffzubereitung vermischt man 10 mg Wirkstoff mit 0,5 ml Dimethylsulfoxid und verdünnt das Konzentrat mit Wasser auf die gewünschte Konzentration. Gefäße, die einen Schwamm enthalten, der mit der Wirkstoffzubereitung der gewünschten Konzentration behandelt wurde, werden mit Musca domestica Adulten besetzt.
Nach 2 Tagen wird die Abtötung in % bestimmt. Dabei bedeutet 100 %, dass alle Fliegen abgetötet wurden; 0 % bedeutet, dass keine Fliegen abgetötet wurden.

Row | SMILES | Wirkung (Abtötung in %) [1] [%] | Wirkung [2] [%] | Wirkung [3] [%] | Wirkung [4] [%] | Wirkung [5] [%] | chromatographic logP [6] | Wirkung (Abtötung in %) [7] [%] | Wirkung (Abtötung in %) [8] [%]
1 | Cn1nc(C(F)(F)C(F)(F)F)c(C(F)(F)F)c1C(=O)Nc1ccc(Cl)c(C(=O)Nc2ccccc2F)c1 [Ia-18, N-{4-Chlor-3-[(2-fluorphenyl)carbamoyl]phenyl}-1-methyl-3-(pentafluorethyl)-4-(trifluormethyl)-1H-pyrazol-5-carboxamid] | 100 | 100 | 100 | 100 | 100 | 3.94 |  | 
2 | Cn1nc(C(F)(F)C(F)(F)F)c(C(F)(F)F)c1C(=O)Nc1ccc(Cl)c(C(=O)Nc2ccc(C(F)(F)F)cc2)c1 [Ia-36] |  | 100 | 100 | 100 |  | 4.4 | 90 | 
3 | Cn1nc(C(F)(F)C(F)(F)F)c(C(F)(F)F)c1C(=O)Nc1ccc(Cl)c(C(=O)Nc2ccc(F)cc2)c1 [Ia-17] | 90 | 100 | 100 | 100 | 80 | 3.89 | 100 | 100
4 | Cn1nc(C(F)(F)C(F)(F)F)c(C(F)(F)F)c1C(=O)Nc1ccc(Cl)c(C(=O)Nc2cc(Cl)ccn2)c1 [Ia-26] | 80 | 100 | 100 | 100 | 90 | 4.17 | 100 | 80
5 | COc1cccc(NC(=O)c2cc(NC(=O)c3c(C(F)(F)F)c(C(F)(F)C(F)(F)F)nn3C)ccc2Cl)c1 [Ia-16] | 95 | 100 | 100 | 100 | 80 | 3.84 | 90 | 
6 | Cn1nc(C(F)(F)C(F)(F)F)c(C(F)(F)F)c1C(=O)Nc1ccc(Cl)c(C(=O)Nc2ccccc2Cl)c1 [Ia-31] | 95 |  | 100 | 100 |  | 4.28 |  | 
7 | Cn1nc(C(F)(F)C(F)(F)F)c(C(F)(F)F)c1C(=O)Nc1ccc(Cl)c(C(=O)Nc2ccc(Cl)cc2)c1 [Ia-28] | 80 | 100 | 100 | 100 | 80 | 4.23 | 100 | 
8 | Cn1nc(C(F)(F)C(F)(F)F)c(C(F)(F)F)c1C(=O)Nc1ccc(Cl)c(C(=O)Nc2ccc(F)cc2F)c1 [Ia-22] | 100 | 100 | 100 | 100 | 100 | 4.05 | 100 | 90
9 | Cc1cc(NC(=O)c2cc(NC(=O)c3c(C(F)(F)F)c(C(F)(F)C(F)(F)F)nn3C)ccc2Cl)ccc1F [Ia-29] | 90 | 100 | 100 | 100 |  | 4.23 | 100 | 
10 | Cn1nc(C(F)(F)C(F)(F)F)c(C(F)(F)F)c1C(=O)Nc1ccc(Cl)c(C(=O)Nc2ccccc2)c1 [Ia-15] | 100 | 100 | 100 | 100 | 90 | 3.84 | 100 | 
11 | Cn1nc(C(F)(F)C(F)(F)F)c(C(F)(F)F)c1C(=O)Nc1ccc(Cl)c(C(=O)Nc2cccnc2)c1 [Ia-2] | 100 | 100 | 100 | 100 | 90 | 2.69 |  | 
12 | Cn1nc(C(F)(F)C(F)(F)F)c(C(F)(F)F)c1C(=O)Nc1ccc(Cl)c(C(=O)Nc2cccc(Cl)c2)c1 [Ia-30] | 90 | 100 | 100 | 100 | 90 | 4.28 | 100 | 
13 | Cn1nc(C(F)(F)C(F)(F)F)c(C(F)(F)F)c1C(=O)Nc1ccc(Cl)c(C(=O)Nc2ccccn2)c1 [Ia-8, N-[4-Chlor-3-(pyrid-2-yl-carbamoyl)phenyl]-1-methyl-3-(pentafluorethyl)-4-(trifluormethyl)-1H-pyrazol-5-carboxamid] | 100 | 100 | 100 | 100 | 80 | 3.53 | 100 | 
14 | Cn1nc(C(F)(F)C(F)(F)F)c(C(F)(F)F)c1C(=O)Nc1ccc(Cl)c(C(=O)Nc2ccc(Cl)nc2)c1 [Ia-11] | 80 | 100 | 100 | 100 | 90 | 3.68 | 100 | 
